Assay results published in US11697679B2, “Modified collagen protein and application of same” (UNIVERSITY OF TSUKUBA, priority 2017, dated 2023).

Test system: GFP-inserted Type V collagen α1 expression MC3T3-E1
Test: Fibrogenesis inhibitory experiment in stress culture in multi-well plates
Assay type: cell-based, mouse
Settings: 1.0 mg/ml added when switched to stress culture; observed after 28 days; compared to wells without Pirfenidone; FIG. 18
Protocol: Normal cultivation was performed using the following materials. Cultivations using MC3T3-E1 and Balb3T3, respectively, were performed in αMEM medium containing 10% serum, and in MEM medium containing 10% serum, at 37° C. and 5% CO2. • Serum: Fetal bovine serum (Gibco) • Medium: Minimum Essential Medium Alpha (Gibco) • Medium: Minimum Essential Medium (Gibco) • Dish for culturing cells: Cell culture dish 60×15 mm (Falcon)
The following flasks were filled with medium for shaking culture. • Cell-culture flasks: 25 mL (Falcon) of Cell culture flask (12.5 cm^2 slant neck/plug seal)
The shaking culture was performed using a mini-shaker SHM-2002 (LMS) at a shaking angle of 7° and a rotational speed of 20 rpm using a sunflower shaking method.
OLYMPUS LX73 was used for fluorescent microscopy. The following filter sets were used for fluorescence imaging. • Green Fluorescence: U-EGFP (OLYMPUS), Ex: 470/20, Em: 518/45 • Red fluorescence: BrightLine®SpGold-B-000-ZERO (Semrock), Ex: 534/20, Em: 572/28 • Near Infrared Fluorescence: BrightLine®Cy5.5-B-000 (Semrock), Ex: 655/40, Em: 716/40
The GFP-inserted Type V collagen α1 expression MC3T3-E1 was cultured in multi-well plates and when switched to stress cultures capable of inducing collagen secretion, 1.0 mg/ml of Pirfenidone was added and compared to wells without such addition of Pirfenidone. […]

How did the “extracellular collagen fiber formation (green fluorescent fiber structures)” value turn out when `Cc1ccc(=O)n(-c2ccccc2)c1` [Pirfenidone] was run?
The value was “inhibited”.
